Source: article PMC9558510 (Cancers, 2022)

Experiments:
[1] = Observed steady-state serum concentrations (LC-MS/MS) in melanoma patients; format: in vivo, human
Method: Serum samples were collected regularly during each routine outpatient visit from study enrollment until January 2022 or until treatment discontinuation. If possible, blood sampling was performed before the next drug administration, but any time interval between the last administration and blood withdrawal was accepted. The steady-state was assumed after continuous dosing for fourteen days for both compounds.
Hydroxy-dabrafenib concentrations were analyzed using a different previously published LC-MS/MS method with an LLOQ of 10 ng/mL [37]. […] Hydroxy-dabrafenib was not quantified in capillary blood samples as the methodology was not available at the time of analysis. All the methods have been validated according to the guidelines of the U.S. Food and Drug Administration and/or the European Medicines Agency.
(§1) Data were collected and processed using Microsoft Excel 2016 Version 16.0 (Microsoft Corporation, Redmond, WA, USA). Statistical calculations and visualization of results were performed with R Studio Version 1.2.5042 (RStudio Incorporation, Boston, MA, USA) running R version 4.0.5 (R Foundation for Statistical Computing, Vienna, Austria, 2020). For further analysis, serum concentrations were divided into groups according to time interval post-dose as follows: 0–5 h, 5–10 h, 10–14 h, and >14 h for (hydroxy-)dabrafenib and 0–10 h, 10–20 h, 20–30 h, and >30 h for trametinib. Concentrations < LLOQ were excluded from further statistical analyses. The concentrations of the same patient at the same dosage and within the same post-dose group were summarized into an individual mean serum concentration for descriptive statistical analysis to account for potential bias caused by the unbalanced number of samples per patient. […] The Wilcoxon […] test was used for unpaired samples. The correlations between individual PK parameters sampled from the conditional distribution during the generation of EBE (methods for estimation see below) and age, sex, body mass index (BMI), and co-medication were analyzed using analysis of variance (ANOVA) and Spearman’s correlation coefficient. Logistic regression was used to compare the risk of treatment discontinuations or dose reductions (dabrafenib dose reduction or discontinuation, trametinib dose reduction or discontinuation, or any dose reduction or discontinuation) with the corresponding predicted trough concentrations and area under the curve of a dosing interval (AUCτ) of dabrafenib, hydroxy-dabrafenib, and trametinib as well as with the composite predicted dabrafenib/hydroxy-dabrafenib trough concentration and with composite dabrafenib/hydroxy-dabrafenib AUCτ assuming standard dosing. The Hosmer–Lemeshow test was used to evaluate the goodness of fit for our logistic regression model. Due to the explorative nature of the study, p-values obtained from multiple comparisons were not corrected for multiple testing. A p-value < 0.05 was considered statistically significant.

[2] = Empirical Bayesian estimates of serum AUCτ and Cmin from serum samples with existing popPK models; conditions: steady state, 150 mg q12h dabrafenib
Method: For each compound, a popPK model developed by Balakirouchenane et al. was assessed regarding its suitability to create EBE using Monolix 2021R1 (Lixoft SAS, Antony, Fance). […] The predictive performance of the models was estimated by calculating the prediction error (PE), mean prediction error (MPE), mean absolute prediction error (MAPE), and mean relative deviation (MRD):(1) PEi[%]=Cpredicted,i−Cobserved,i/Cobserved,i·100 (2) MPE[%]=1/n∑i=1nPEi (3) MAPE[%]=1/n∑i=1n|PEi| (4) MRD=10^x;x=1/n∑i=1n(log10[Cpredicted,i]−log10[Cobserved,i])^2
Estimates for AUCτ were generated for every occasion for the standard doses (150 mg q12h for dabrafenib, 2 mg q24h for trametinib). In addition, the individual predicted Cmin at a steady state was generated since not all patients contributed trough samples. The same estimates were used in the logistic regression model.

[3] = Logistic regression of dose reduction/discontinuation vs predicted exposure; format: in vivo, human; conditions: logistic regression, standard dosing assumed
Method: as §1

[4] = serum, dabrafenib dose of 150 mg q12h
[5] = standard dose, BMI (kg/m2) < 30
[6] = standard dose, BMI (kg/m2) >= 30
[7] = standard dose, P-gp inducer: no
[8] = standard dose, P-gp inducer: yes
[9] = standard dose, P-gp inhibitor: no
[10] = standard dose, P-gp inhibitor: yes
[11] = standard dose, age above 65: no
[12] = standard dose, age above 65: yes
[13] = standard dose, moderate CYP2C8 inhibitor: no
[14] = standard dose, moderate CYP2C8 inhibitor: yes

median of individual mean trough concentration [1, 4]: 76.0 ng/mL
range of individual mean trough concentration [1, 4]: 37.2 to 171.0 ng/mL
effect of co-medication with at least one P-gp inducer on individual mean trough concentrations ([1]; serum, standard dose): no effect
serum Cmin mean [1, 5]: 73.6 ng/mL
serum Cmin median [1, 5]: 72.9 ng/mL
serum Cmin mean [1, 6]: 97.6 ng/mL
serum Cmin median [1, 6]: 68.3 ng/mL
serum Cmin mean [1, 7]: 101 ng/mL
serum Cmin median [1, 7]: 90.9 ng/mL
serum Cmin mean [1, 8]: 62.1 ng/mL
serum Cmin median [1, 8]: 56.6 ng/mL
serum Cmin mean [1, 9]: 100 ng/mL
serum Cmin median [1, 9]: 78 ng/mL
serum Cmin mean [1, 10]: 77.3 ng/mL
serum Cmin median [1, 10]: 70.2 ng/mL
serum Cmin mean ([1]; standard dose, PPI: no): 93.1 ng/mL
serum Cmin median ([1]; standard dose, PPI: no): 78 ng/mL
serum Cmin mean ([1]; standard dose, PPI: yes): 53.7 ng/mL
serum Cmin median ([1]; standard dose, PPI: yes): 53.7 ng/mL
serum Cmin mean [1, 11]: 92.7 ng/mL
serum Cmin median [1, 11]: 77.6 ng/mL
serum Cmin mean [1, 12]: 66.2 ng/mL
serum Cmin median [1, 12]: 55.6 ng/mL
serum Cmin mean [1, 13]: 89.4 ng/mL
serum Cmin median [1, 13]: 78 ng/mL
serum Cmin mean [1, 14]: 86.3 ng/mL
serum Cmin median [1, 14]: 76.6 ng/mL
serum Cmin mean ([1]; standard dose, sex female): 86 ng/mL
serum Cmin median ([1]; standard dose, sex female): 68.3 ng/mL
serum Cmin mean ([1]; standard dose, sex male): 77.3 ng/mL
serum Cmin median ([1]; standard dose, sex male): 72.9 ng/mL
median of the average predicted trough concentrations [2]: 84.5 ng/mL
median of the average predicted AUCτ ([2]; average over all observations per patient): 6040 ng·h/mL
SMILES: CC(C)(CO)c1nc(-c2cccc(NS(=O)(=O)c3c(F)cccc3F)c2F)c(-c2ccnc(N)n2)s1 [hydroxy-dabrafenib]
relationship between dose reduction or discontinuation due to AE and predicted serum trough concentrations or AUCτ [3]: no significant relationships
